We go through one molecule from patent US20080220056A1, “Treatment for liver disease” (UNIVERSITY OF SOUTHAMPTON, priority 2002, published 2008).

In test [1] the test system is activated hepatic stellate cells. The test is described as follows: Apoptosis of activated hepatic stellate cells by acridine orange, sulfasalazine. Particulars: 24 hours. It counts as cell-based. As to the method:
(§1) Treatment of activated hepatic stellate cells with Sulfasalazine (at a concentration of 0.5, 1 or 2 mM) for 24 hours induced a dose-dependent increase in apoptosis visualised by both Acridine Orange staining (30%, 45% and 55% respectively).

In test [2] the test system is caspase 3 activity. The test can be described thus: Caspase 3 activity, sulfasalazine-treated hepatic stellate cells. It counts as cell-based. Particulars: 0.5, 1 or 2 mM. As to the method:
as §1

The subject of test [3] is NFκB responsive gene promoters. The test is described as follows: NFκB responsive gene promoter activity. It counts as cell-based. Particulars: 24 hours, versus untreated cells.
The subject of test [4] is NFκB DNA binding activity. The test is described as follows: Electromobility shift assay, sulfasalazine-treated hepatic stellate cells. It counts as cell-based. As to conditions: day 7 HSC; 0.5, 1 and 2 mM for 24 hours.
The test system of test [5] is experimentally induced fibrosis. The test is described as follows: Recovery from carbon tetrachloride induced fibrosis in rats, sulfasalazine. It counts as in vivo, rat. As to the method: Adult male Sprague Dawley rats were treated twice weekly for six weeks by intraperitoneal injection of the hepatotoxin carbon tetrachloride and then allowed to recover for 24 hours prior to treatment with either vehicle control or sulfasalazine. Animals were then left to recover for either a further 16 or 72 hours.

The structures appear in SMILES notation.

Regarding `O=C(O)c1cc(/N=N/c2ccc(S(=O)(=O)Nc3ccccn3)cc2)ccc1O` [Sulfasalazine], the “apoptosis by Acridine Orange staining” value was found to be 30% in test [1] (0.5 mM), 45% in test [1] (1 mM) and 55% in test [1] (2 mM). Also, the “caspase 3 activity” value in test [2] is reported as “increased caspase 3 activity in a dose-dependent manner”. For the same molecule, the “activity of NFκB responsive gene promoters (PGJ21 (4xNFκB), IL6 and IκBα)” value in test [3] was “repressed the activity of three NFκB responsive gene promoters”. Also, the “activity of control 7×AP1 promoter” value in test [3] is on record as “but not a control 7×AP1 promoter”. The “NFκB DNA binding activity” value in test [4] is listed as “dose dependently inhibited NFκB DNA binding activity”. Besides, the “collagen deposition (fibrosis) versus control livers” value in test [5] (six weeks CCl4, 16 hours recovery) is “no significant difference in collagen deposition”. Further, the “collagen versus control livers” value in test [5] (six weeks CCl4, 72 hours recovery) was “significantly less collagen”. Also, the “fibrosis score (1-4; 1 no fibrosis, 4 cirrhosis)” value in test [5] (six weeks CCl4, 72 hours recovery, control livers 3) is reported as 1.5. Moreover, the “numbers of activated hepatic stellate cells versus control livers” value in test [5] (six weeks CCl4, treatment 24 hours later, 16 hours recovery) is listed as “large reduction in numbers of activated hepatic stellate cells”.
